Results published in article PMC4512978, “Synthesis and evaluation in rats of homologous series of [^18F]-labeled dopamine D2/3 receptor agonists based on the 2-aminomethylchroman scaffold as potential PET tracers” (EJNMMI Research, 2015).

Tested on: D2/3R
Experiment: Kinetic analysis of PET data (1TCM, 2TCM, Logan, SRTM);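 on 2TCM BPND change relative to control: Raclopride 1 mg/kg intravenous pretreatment versus saline controls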;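 on SRTM BPND change relative to control: Raclopride 1 mg/kg intravenous pretreatment versus saline controls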
Format: in vivo, Sprague-Dawley rats
Set-up: key to SRTM BPND / 1TCM BPND / 2TCM BPND (VT-based): BPND = VT(target)/VT(cerebellum) − 1 (or SRTM, cerebellum reference); SRTM BPND change relative to control / 1TCM BPND change relative to control / 2TCM BPND change relative to control / Logan BPND change relative to control: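 Raclopride 1 mg/kg intravenous pretreatment versus saline controls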; 1TCM VT / 2TCM VT: unit not given here
Experimental: Kinetic analysis is described using the nomenclature proposed by Innis et al.. ROI TACs of [^18F]FEt-AMC13 were analyzed with one-tissue and two-tissue compartmental models of reversible binding (1TCM and 2TCM, respectively) to obtain individual rate constants. From these, the regional distribution volumes (VT) were calculated and compared to those obtained with Logan graphical analysis. Binding potentials (BPND) were calculated from the distribution ratios as VT (target) / VT (cerebellum) – 1, or estimated with the simplified reference tissue model (SRTM) using the cerebellum as reference region.
Metabolite-corrected plasma-derived arterial input function and whole blood time-activity curve were used for Logan, 1TCM, and 2TCM analyses. Fractional cerebral blood volume was set to 3.6 % [27]. For one rat in the raclopride-treated group, no input curves could be obtained; therefore, its PET data were only analyzed with SRTM.
Degree of D2/3R-specific binding of the tracers was characterized by BPND (as given above) or the specific binding ratio (SBR) given as target region activity/cerebellar activity - 1. Both were calculated under control conditions and in response to the raclopride challenge.

[1] = Cortex, raclopride, listed as [18F]FEt-AMC13
[2] = Hippocampus, raclopride, listed as [18F]FEt-AMC13
[3] = Hypothalamus, control rat A, SD could not be estimated

1TCM VT (Cortex, raclopride): 5.17±0.60
2TCM VT (Cortex, raclopride): 5.45±0.52
Logan VT (Cortex, raclopride): 5.42±0.44
1TCM VT (Hippocampus, control): 6.34±0.71
2TCM VT (Hippocampus, control): 6.62±0.86
Logan VT (Hippocampus, control): 6.49±0.88
1TCM VT (Hippocampus, raclopride): 5.88±0.56
2TCM VT (Hippocampus, raclopride): 6.27±0.63
Logan VT (Hippocampus, raclopride): 6.25±0.56
1TCM VT (Hypothalamus, control): 5.86±0.60
2TCM VT (Hypothalamus, control): 6.20±0.55
Logan VT (Hypothalamus, control): 6.10±0.44
Compound: Oc1ccc2c(c1)O[C@@H](CNCc1ccc(OCC[18F])cc1)CC2 [[^18F]FEt-AMC13]
2TCM k2 (Cortex, control rat C): 0.19 ± 1.58 min⁻¹
2TCM k3 (Cortex, control rat C): 1.50 ± 19.49 min⁻¹
2TCM k4 (Cortex, control rat C): 1.00 ± 1.64 min⁻¹
1TCM K1 (Cortex, control rat D): 0.47 ± 0.02 mL/g/min
1TCM k2 (Cortex, control rat D): 0.09 ± 0.01 min⁻¹
2TCM K1 (Cortex, control rat D): 1.46 ± 0.45 mL/g/min
2TCM k2 (Cortex, control rat D): 6.65 ± 0.77 min⁻¹
2TCM k3 (Cortex, control rat D): 2.62 ± 1.18 min⁻¹
2TCM k4 (Cortex, control rat D): 0.11 ± 6.33 min⁻¹
1TCM BPND (Cortex, raclopride): 0.17±0.05
1TCM BPND change relative to control (Cortex, raclopride): -9%
2TCM BPND (VT-based) (Cortex, raclopride): 0.10 ± 0.02
2TCM BPND change relative to control (Cortex, raclopride): −27%
Logan BPND (Cortex, raclopride): 0.09±0.03
Logan BPND change relative to control (Cortex, raclopride): -32%
SRTM BPND (Cortex, raclopride): 0.08 ± 0.02
SRTM BPND change relative to control (Cortex, raclopride): −24%
2TCM BPND (VT-based) [1]: 0.10±0.02
2TCM BPND change relative to control [1]: -27%
SRTM BPND [1]: 0.08±0.02
SRTM BPND change relative to control [1]: –24%
1TCM BPND (Hippocampus, control): 0.35±0.11
2TCM BPND (VT-based) (Hippocampus, control): 0.30 ± 0.07
Logan BPND (Hippocampus, control): 0.28±0.04
SRTM BPND (Hippocampus, control): 0.26 ± 0.04
1TCM K1 (Hippocampus, control rat A): 0.41 ± 0.02 mL/g/min
1TCM k2 (Hippocampus, control rat A): 0.06 ± 0.01 min⁻¹
2TCM K1 (Hippocampus, control rat A): 2.21 ± 1.25 mL/g/min
2TCM k2 (Hippocampus, control rat A): 8.56 ± 3.62 min⁻¹
2TCM k3 (Hippocampus, control rat A): 1.60 ± 2.24 min⁻¹
2TCM k4 (Hippocampus, control rat A): 0.05 ± 8.88 min⁻¹
1TCM K1 (Hippocampus, control rat B): 0.51 ± 0.02 mL/g/min
1TCM k2 (Hippocampus, control rat B): 0.08 ± 0.01 min⁻¹
2TCM K1 (Hippocampus, control rat B): 0.71 ± 0.07 mL/g/min
2TCM k2 (Hippocampus, control rat B): 0.50 ± 0.23 min⁻¹
2TCM k3 (Hippocampus, control rat B): 0.50 ± 0.27 min⁻¹
2TCM k4 (Hippocampus, control rat B): 0.14 ± 0.03 min⁻¹
1TCM K1 (Hippocampus, control rat C): 0.46 ± 0.01 mL/g/min
1TCM k2 (Hippocampus, control rat C): 0.08 ± 0.004 min⁻¹
2TCM K1 (Hippocampus, control rat C): 0.60 ± 0.12 mL/g/min
2TCM k2 (Hippocampus, control rat C): 0.57 ± 0.77 min⁻¹
2TCM k3 (Hippocampus, control rat C): 1.17 ± 1.34 min⁻¹
2TCM k4 (Hippocampus, control rat C): 0.24 ± 0.09 min⁻¹
1TCM K1 (Hippocampus, control rat D): 0.48 ± 0.02 mL/g/min
1TCM k2 (Hippocampus, control rat D): 0.08 ± 0.01 min⁻¹
2TCM K1 (Hippocampus, control rat D): 101 ± 14615 mL/g/min
2TCM k2 (Hippocampus, control rat D): 1246 ± 181990 min⁻¹
2TCM k3 (Hippocampus, control rat D): 5.49 ± 4.23 min⁻¹
2TCM k4 (Hippocampus, control rat D): 0.07 ± 0.05 min⁻¹
1TCM BPND (Hippocampus, raclopride): 0.33±0.09
1TCM BPND change relative to control (Hippocampus, raclopride): -8%
2TCM BPND (VT-based) (Hippocampus, raclopride): 0.26 ± 0.06
2TCM BPND change relative to control (Hippocampus, raclopride): −13%
Logan BPND (Hippocampus, raclopride): 0.25±0.05
Logan BPND change relative to control (Hippocampus, raclopride): -10%
SRTM BPND (Hippocampus, raclopride): 0.23 ± 0.05
SRTM BPND change relative to control (Hippocampus, raclopride): −13%
2TCM BPND (VT-based) [2]: 0.26±0.06
2TCM BPND change relative to control [2]: -13%
SRTM BPND [2]: 0.23±0.05
SRTM BPND change relative to control [2]: –13%
1TCM BPND (Hypothalamus, control): 0.25±0.04
2TCM BPND (VT-based) (Hypothalamus, control): 0.22 ± 0.03
Logan BPND (Hypothalamus, control): 0.21±0.04
SRTM BPND (Hypothalamus, control): 0.21 ± 0.03
1TCM K1 (Hypothalamus, control rat A): 0.40 ± 0.03 mL/g/min
1TCM k2 (Hypothalamus, control rat A): 0.06 ± 0.01 min⁻¹
2TCM K1 [3]: 273 mL/g/min
2TCM k2 [3]: 1355 min⁻¹
2TCM k3 [3]: 1.65 min⁻¹
2TCM k4 [3]: 0.05 min⁻¹
1TCM K1 (Hypothalamus, control rat B): 0.53 ± 0.03 mL/g/min
1TCM k2 (Hypothalamus, control rat B): 0.09 ± 0.01 min⁻¹
2TCM K1 (Hypothalamus, control rat B): 1.17 ± 0.88 mL/g/min
2TCM k2 (Hypothalamus, control rat B): 3.45 ± 1.30 min⁻¹
2TCM k3 (Hypothalamus, control rat B): 2.22 ± 6.73 min⁻¹
2TCM k4 (Hypothalamus, control rat B): 0.13 ± 14.19 min⁻¹
1TCM K1 (Hypothalamus, control rat C): 0.50 ± 0.02 mL/g/min
1TCM k2 (Hypothalamus, control rat C): 0.08 ± 0.01 min⁻¹
2TCM K1 (Hypothalamus, control rat C): 0.64 ± 0.24 mL/g/min
2TCM k2 (Hypothalamus, control rat C): 0.63 ± 1.60 min⁻¹
2TCM k3 (Hypothalamus, control rat C): 1.37 ± 2.85 min⁻¹
2TCM k4 (Hypothalamus, control rat C): 0.27 ± 0.20 min⁻¹
1TCM K1 (Hypothalamus, control rat D): 0.59 ± 0.04 mL/g/min
1TCM k2 (Hypothalamus, control rat D): 0.12 ± 0.02 min⁻¹
2TCM K1 (Hypothalamus, control rat D): 680 ± 116990 mL/g/min
2TCM k2 (Hypothalamus, control rat D): 3105 ± 534810 min⁻¹
2TCM k3 (Hypothalamus, control rat D): 2.16 ± 0.48 min⁻¹
